{
  "source": "patent US20190038587A1",
  "about": "“DNA Methylation Landscapes of Post-Traumatic Stress Disorder (PTSD) Susceptibility and Resilience and Novel Therapeutics of PTSD Derived Thereof” (priority 2016, published 2019)",
  "key": {"[1]": {"tested_on": "DNA methylation profile in the NAc", "test": "Capture bisulfite sequencing and DNA methylation mapping of nucleus accumbens after SAM treatment", "type": "in vivo, Sprague-Dawley rats", "method": "(§1) Brains were removed immediately after exposure to litter with cat scent immediately after Re3. Each brain was placed in a Perspex brain matrix and sliced into 1.0 mm segments. The NAc was punched out using a micro dissecting needle of 13-14 G. Brain tissue was frozen at −70° C. until DNA and RNA extraction.\nGenomic DNA was extracted using All Prep DNA/RNA Micro Kit, Qiagen (Hilden, Germany)\nThe SeqCap Epi Enrichment System was used for target bisulfite sequencing of promoters and enhancers in the rat genome. The rat (rn4) target probes were custom designed by utilizing H3K4me1 and H3K4me3 (indicating enhancers and promoters respectively) signals from mouse samples as there is no currently available ChIP data of H3K4me1 and H3K4me3 with respect to the rat species. PuttivH3K4me1 and me3 were selected by mapping and aligning genomic fragments from mouse to the rat and retaining any fragments that share a high similarity and the subsequent associated signals. A total of 53374 target probes have been designed spanning 48072248 base pairs of sequence with a mean probe size of 900 bp. Biotinylated target probes were designed for both strands of bisulfite converted genomic DNA. Bisulfite treated genomic DNA is ligated to methylated NGS adaptors, hybridized to the biotinylated oligonucleotide probes which is followed by a series of washes of off-target DNA sequences and unbound DNA. The resulting isolated specific DNA then undergoes PCR amplification for downstream sequencing on Illumina Hiseq 2000 sequencer. Capture and hybridization is performed as a service for fee by ICRM in Montreal licensed by Roche/Nimblegen. The following bioinformatics workflow is used in the lab. Quality control is done using FastQC to assess sequencing scores and other quality metrics. If necessary, trimming of raw file is performed using Trimmomatic to remove low scoring sequencing results and/or adapter contents. Sequences are aligned to rn4 rat reference genome using Bsmap v2.89. A typical alignment rate of 90%-95% is achieved (30× coverage). The resulting sequencing alignment file (SAM) is converted to binary alignment format (BAM) for downstream analysis and filtering. BAM files are split, merged, and sorted by strand for additional downstream filtering and analysis. Duplicate reads within the BAM files are removed via Picard Tools (v1.93, BROAD institute) strand-specifically and the separate BAM files are merged back together and examined by Bamtools to assess whether the sequences are properly mapped to genome, whether both paired end reads exist (for paired end sequencing), and whether paired end reads are properly paired to each other (for paired end sequencing). Using the final BAM file, methylation ratios and coverage is recovered by provided scripts within Bsmap as well as methylation context. Annotation of genomic locations is performed by HOMER. Computation of differential methylation sites and tiled windows of differentially methylated regions was performed using a logistic regression method with the Methylkit R package in Bioconductor1. FDR adjusted P value significance threshold is held at <0.2.\nNAcs were isolated from the animals (n=4-7 per group) following the third reminder and DNA and RNA were extracted as described in the methods. DNA was bisulfite converted, enriched using capture arrays for all predicted promoters and enhancers in the rat genome and was then subjected to next generation sequencing. […]"}, "[2]": {"tested_on": "Beta estradiol downstream pathway", "test": "Pathway analysis of upstream regulators of differentially methylated genes", "parameters": "species or system Sprague-Dawley rats", "settings": "susceptible animals treated with SAM relative to susceptible treated with saline; FIG. 6B", "description": "If DNA methylation plays a causal role in PTSD, comparative analysis of upstream regulators of genes whose DNA methylation is different in control, susceptible, resilient and SAM treated animals could reveal important putative new pathways and networks involved in PTSD molecular pathology that are candidates for therapeutic intervention (FIG. 6A). […] Other up-regulators of differentially methylated genes are presented in the Heatmap. These pathways are relevant to anxiety and memory pathways such as: sex hormones, glucocorticoid and different cytokines.\nIn reference to FIG. 6, “A” is coloring representing the p value of each group for the different “upstream-regulator” regulated pathways. Light blue represents low activation and dark blue represents high activation of the pathway. Grey represents pathways that didn't change. Yellow lines and boxes represent sex hormone dependent pathways, blue lines and boxes represent cytokine regulated pathways, pink lines and boxes represent glucocorticoids regulated pathways and green lines and boxes represent retinoic acid (vitamin A) regulated pathways. “B” is circular heat maps representing the different pathways that are influenced by a specific “upstream-upregulator” and are altered in PTSD susceptible and resistant animals. […]"}, "RORA mRNA": {"tested_on": "RORA mRNA", "test": "RORA mRNA expression in nucleus accumbens following the third reminder", "type": "in vivo, Sprague-Dawley rats", "settings": "NAc following Re3; SAM vs saline; FIG. 6C", "method": "as §1\nThe retinoic biosynthesis and degradation pathway was also enriched with differentially methylated genes. In the susceptible group there was an enrichment in downstream targets of the RAR-Related Orphan Receptor A (RORA), however the impact on level of activity of this pathway could not be derived from this analysis (FIG. 6B). Therefore, the levels of RORA mRNA expression in the different groups was first determined. RORA mRNA expression levels were higher in either control or resilient animals treated with either saline or SAM than in susceptible animals (*p<0.05, *p<0.05 and **p<0.01 respectively) (FIG. 6C), consistent with the possibility that this gene is involved in the pathology of PTSD. […] Therefore, it was hypothesized that the RORA pathway is involved in the hyperarousal behavior which is resistant to SAM's treatment and characteristic of the susceptible PTSD group. The correlation between the mRNA expression of RORA and the three behavioral tests was first measured; as hypothesized, only the hyperarousal behavior was correlated with the mRNA expression of RORA (FIG. 6D). […]"}, "[3]": {"tested_on": "susceptible rats (PTSD-like)", "test": "Rat PTSD model (predator scent, incubation of fear): freezing behavior in open field after third reminder", "type": "in vivo, Sprague-Dawley rats", "method": "Adult male Sprague-Dawley rats (250-270 gr; Harlan, Rehovot, Israel) were used and housed under conditions of constant temperature (22° C.) and 50% humidity, with a 12-h light-12-h dark cycle. The rats were allowed to habituate to the animal house for 7 days (acclimation). They were housed three per cage, two experimental rats together with a third companion rat. The same three rats remained together until the end of the study. Food and water were provided ad libitum. All experiments were performed between 08:00 and 14:00 in daylight. All animal procedures were approved by the Bar-Ilan University Animal Care Committee and were carried out in accordance with the NIH Guide for the Care and Use of Laboratory Animals.\nThe model used in this research is based on Kesner et al., 2009^32. This model consists of several stages encompassing […], detailed below and depicted in FIG. 1. The animals are analyzed according to three clinically-relevant clusters of symptoms: manifestation of freezing behavior when (a) situated alone in an open field paradigm (re-experiencing), (b) situated with a habituated companion (social interaction) and (c) after exposure to a hyperarousal event^33. The range of each measured behavioral procedure was determined for all animals after the base-line (week 3). The data collected at baseline was analyzed and the explore procedure was applied using SPSS 11 to define the range of the population. The upper and lower levels of this range were treated as ‘normal baseline’ and alterations from this range were used to define PTSD-like behavior (susceptible).\nEach experimental or naive rat was habituated for 7 days to their home cage (the first week of the habituation). For the first stage of the experiment each experimental or naive rat was habituated for 7 days to an open field apparatus together with a companion rat from their home cage, 5 min per day for 7 days (the second week of the experiment). The open field apparatus was a 90×90×30 cm Plexiglas box, which was placed under a camera. The video and computer equipment were situated in a separate room where all video and observation analyses were performed.\nAfter 14 days (Day 1) of habituation, baseline freezing levels of experimental and naive rats were measured prior to stress exposure. Behavioral parameters and measurements are described below (Behavioral Measurements section).\nOne week later (Day 7), experimental rats were exposed to stress, i.e. predator scent. Individual rats were placed for 30 min in a clean plastic cylinder (diameter: 30 cm, height: 33 cm) containing 125 ml of well-soiled cat litter, used by a cat during the 24 h prior to the experiment. After exposure to stress, each rat was transferred to the open field, and three behavioral parameters were measured (as described in the Behavioral Measurements section below). The cylinder was cleaned between testing of each rat. Temperature and humidity conditions in the stress exposure area were identical to those in the housing cages and open field. The companion rats were not exposed to stress, and were housed in separate cages in a separate housing area during all experiments. The same cat was used for the litter introduced during initial exposure.\nOne week later (Day 14), rats were re-exposed for 30 minutes to litter with the same texture, but without the cat scent. Behavioral parameters were subsequently tested (as described below).\nThree weeks later (Day 35), rats were again exposed for 30 min to litter with the same texture and without cat scent. Behavioral parameters were subsequently tested (as described below). Behavioral data for this testing stage were analyzed according to the division criteria detailed below. Based on the obtained results, experimental rats were defined as either susceptible or resilient.\nAfter exposure to cat litter, each rat was placed in the open field for measurement of PTSD-like behavior. […]"}, "long term potentiation": {"tested_on": "long term potentiation", "settings": "literature; cited from earlier work"}, "[4]": {"settings": "susceptible-SAM vs susceptible-saline rats, threshold >10, Q value 0.2, FIG. 4A"}},
  "data": [
    {"smiles": "C[S+](CC[C@H](N)C(=O)O)C[C@H]1O[C@@H](n2cnc3c(N)ncnc32)[C@H](O)[C@@H]1O", "note": "(stereo partly drawn) [SAM, S-adenosylmethionine]", "values": [
      {"measurement": "CGs sites differentially methylated in the susceptible animals and reversed by the SAM treatment", "setting": "[1]; FIG. 4A-B", "result": 140, "unit": "CGs sites"},
      {"measurement": "CG sites differentially methylated in both the susceptible and the resilient rats affected by SAM", "setting": "[1]; FIG. 4C-D", "result": 38, "unit": "CG sites"},
      {"measurement": "fraction of total susceptible sites reversed by SAM treatment", "setting": "[1]; sites altered in susceptible rats relative to controls", "result": 30, "unit": "%"},
      {"measurement": "CGs sites that were de-methylated", "setting": "[1]; [4]", "result": 599, "unit": "CGs sites"},
      {"measurement": "CGs sites that were hyper-methylated", "setting": "[1]; [4]", "result": 363, "unit": "CGs sites"},
      {"measurement": "state of activity of Beta estradiol downstream pathway", "setting": "[2]", "result": "inhibited"},
      {"measurement": "level of expression of RORA (mRNA)", "setting": "RORA mRNA", "result": "no effect"},
      {"measurement": "freezing behavior during the 'exploration' test", "setting": "[3]; Embodiment 2, susceptible rats, SAM 25 mg/kg i.p. 24 h and 1 h before Re-3, vs susceptible-saline, FIG. 3A", "result": "significantly decreased"},
      {"measurement": "freezing behavior during the 'social interaction' test", "setting": "[3]; Embodiment 2, susceptible rats, SAM 25 mg/kg i.p. 24 h and 1 h before Re-3, vs susceptible-saline, FIG. 3B", "result": "significantly decreased"},
      {"measurement": "freezing behavior during the 'hyperarousal' test", "setting": "[3]; Embodiment 2, susceptible rats, SAM 25 mg/kg i.p. 24 h and 1 h before Re-3, vs susceptible-saline, FIG. 3C", "result": "no difference in freezing behavior"},
      {"measurement": "freezing behavior during the 'exploration' test", "setting": "[3]; Embodiment 4, susceptible rats, SAM 25 mg/kg and/or retinoic acid 2 mg/kg i.p. 24 h and 1 h before Re-3, vs susceptible-RA and susceptible-saline, FIG. 7A", "result": "significantly decreased"},
      {"measurement": "freezing behavior during the 'social interaction' test", "setting": "[3]; Embodiment 4, susceptible rats, SAM 25 mg/kg and/or retinoic acid 2 mg/kg i.p. 24 h and 1 h before Re-3, vs susceptible-RA and susceptible-saline, FIG. 7B", "result": "significantly decreased"},
      {"measurement": "fold change in freezing behavior in 'exploration' and 'social interaction' tests (from Re-2 to Re-3)", "setting": "[3]; susceptible-treated rats, FIG. 3D-G", "result": "effective in reducing these behaviors"},
      {"measurement": "fold change in freezing behavior in the 'hyperarousal' test (from Re-2 to Re-3)", "setting": "[3]; susceptible-treated rats, FIG. 3H-I", "result": "ineffective in changing freezing behavior"}
    ]},
    {"smiles": "Nc1ncn([C@H]2C[C@H](O)[C@@H](CO)O2)c(=O)n1", "note": "[5-aza-2-deoxycytidine]", "values": [
      {"measurement": "effect on long term potentiation", "setting": "long term potentiation", "result": "inhibited long term potentiation"}
    ]}
  ]
}
